Test results: paper PMC6039436, “Radiobrominated benzimidazole-quinoline derivatives as Platelet-derived growth factor receptor beta (PDGFRβ) imaging probes” (Scientific Reports, 2018)

How the values were obtained:
[1] = tested on: BxPC3-luc tumor; test: In vivo blocking study in tumor-bearing mice; design: species or system BALB/c nu/nu mice; conditions: 1 h postinjection
Experimental: The tumor uptake of both the control and blocking groups was 1.61 ± 0.24 and 0.96 ± 0.20% ID/g, respectively. Thus, the figures are shown as not only % ID/g but also as tumor-to-blood ratio.
Figure 7 (a) Tumor uptake and (b) tumor/blood uptake ratios of [^77Br]2 and [^125I]4 at 1 h postinjection with 1 (40 mg/kg) (blocking group) or no treatment control group. Data were presented as means ± SD for three or four mice. Significance was determined using an unpaired Student’s t-test (^*p < 0.05, ^**p < 0.01).
For in vivo blocking studies, the tumor-bearing mice were intraperitoneally injected with 200 µL of 1 (40 mg/kg in 15% ethanol and 85% water) 1 h before intravenous injection of 100 µL of saline solution containing [^77Br]2 and [^125I]4 or [^77Br]3 and [^125I]5 (74 kBq, respectively), 1% tween-80 and 10% ethanol. At 1 h postinjection of radiotracers, the mice were sacrificed.
(§1) Tissues in mice were resected and weighed. The radioactivity of the tissues was counted by a gamma counter and counts were corrected for background radiation. The data were expressed as percent injection dose per gram tissue (%ID/g).

[2] = Biodistribution in ddY mice; type: in vivo; conditions: i.v. co-injection
Experimental: In this study, to minimize both the number of mice consumed in the experiment and the potential for experimental errors, we co-injected radiobrominated and radioiodinated compounds into mice[30],[31]. High radioactivity in the liver, small intestine, and large intestine was observed.
Mice were intravenously injected via the tail with 100 µL of saline solution of [^77Br]2 and [^125I]4 or [^77Br]3 and [^125I]5 (74 kBq, respectively), containing 10% ethanol and 1% tween-80. The ddY mice were sacrificed at 10 min, 1, 4, and 24 h postinjection. Meanwhile, tumor-bearing mice were sacrificed at 1 h postinjection.
as §1

With `COCCOc1ccc2c(c1)ncn2-c1ccc2c([77Br])ccc(N3CCC(N)CC3)c2n1` [[^77Br]2, [^77Br]1-{5-Bromo-2-[5-(2-methoxyethoxy)-1H-benzo[d]imidazol-1-yl]quinoline-8-yl}piperidin-4-amine] the “Tumor-to-blood ratio, blocking group vs control” value ([1]; pretreatment with 1 (40 mg/kg)) was “significantly reduced”, the “Tumor uptake, blocking group” value ([1]; pretreatment with 1 (40 mg/kg, intraperitoneal, 1 h before)) was 0.96 ± 0.20 % ID/g and the “Radioactivity in Blood” value ([2]; 10 min) was 0.99 (0.03) %injected dose/gram tissue. The “Radioactivity in Bone” value ([2]; 10 min) was 2.81 (1.06) %injected dose/gram tissue, the “Radioactivity in Brain” value ([2]; 10 min) was 0.12 (0.01) %injected dose/gram tissue and the “Radioactivity in Heart” value ([2]; 10 min) was 4.41 (0.27) %injected dose/gram tissue. For the same compound, the “Radioactivity in Kidney” value ([2]; 10 min) was 15.61 (1.32) %injected dose/gram tissue, the “Radioactivity in Large intestine” value ([2]; 10 min) was 0.99 (0.10) %injected dose/gram tissue and the “Radioactivity in Liver” value ([2]; 10 min) was 12.49 (0.64) %injected dose/gram tissue. For the same compound, the “Radioactivity in Lung” value ([2]; 10 min) was 10.92 (0.55) %injected dose/gram tissue, the “Radioactivity in Muscle” value ([2]; 10 min) was 2.24 (0.18) %injected dose/gram tissue and the “Radioactivity in Pancreas” value ([2]; 10 min) was 4.18 (0.38) %injected dose/gram tissue. The “Radioactivity in Small intestine” value ([2]; 10 min) was 8.58 (2.18) %injected dose/gram tissue, the “Radioactivity in Spleen” value ([2]; 10 min) was 5.39 (0.40) %injected dose/gram tissue and the “Radioactivity in Stomach” value ([2]; 10 min) was 1.74 (0.15) %injected dose /organ. The “Radioactivity in Blood” value ([2]; 1 h) was 0.28 (0.06) %injected dose/gram tissue, the “Radioactivity in Bone” value ([2]; 1 h) was 1.15 (0.15) %injected dose/gram tissue and the “Radioactivity in Brain” value ([2]; 1 h) was 0.10 (0.01) %injected dose/gram tissue. For the same compound, the “Radioactivity in Heart” value ([2]; 1 h) was 1.15 (0.17) %injected dose/gram tissue, the “Radioactivity in Kidney” value ([2]; 1 h) was 10.12 (3.49) %injected dose/gram tissue and the “Radioactivity in Large intestine” value ([2]; 1 h) was 2.69 (0.65) %injected dose/gram tissue. The “Radioactivity in Liver” value ([2]; 1 h) was 4.26 (1.37) %injected dose/gram tissue, the “Radioactivity in Lung” value ([2]; 1 h) was 4.32 (0.84) %injected dose/gram tissue and the “Radioactivity in Muscle” value ([2]; 1 h) was 0.92 (0.04) %injected dose/gram tissue. The “Radioactivity in Pancreas” value ([2]; 1 h) was 2.98 (0.75) %injected dose/gram tissue, the “Radioactivity in Small intestine” value ([2]; 1 h) was 29.51 (7.92) %injected dose/gram tissue and the “Radioactivity in Spleen” value ([2]; 1 h) was 1.59 (0.28) %injected dose/gram tissue. The “Radioactivity in Stomach” value ([2]; 1 h) was 1.62 (0.55) %injected dose /organ, the “Radioactivity in Blood” value ([2]; 4 h) was 0.20 (0.03) %injected dose/gram tissue and the “Radioactivity in Bone” value ([2]; 4 h) was 1.50 (1.27) %injected dose/gram tissue. The “Radioactivity in Brain” value ([2]; 4 h) was 0.09 (0.00) %injected dose/gram tissue, the “Radioactivity in Heart” value ([2]; 4 h) was 0.58 (0.13) %injected dose/gram tissue and the “Radioactivity in Kidney” value ([2]; 4 h) was 4.33 (0.75) %injected dose/gram tissue. The “Radioactivity in Large intestine” value ([2]; 4 h) was 53.70 (8.89) %injected dose/gram tissue, the “Radioactivity in Liver” value ([2]; 4 h) was 3.44 (0.98) %injected dose/gram tissue and the “Radioactivity in Lung” value ([2]; 4 h) was 2.71 (1.06) %injected dose/gram tissue. The “Radioactivity in Muscle” value ([2]; 4 h) was 0.44 (0.07) %injected dose/gram tissue, the “Radioactivity in Pancreas” value ([2]; 4 h) was 1.63 (0.19) %injected dose/gram tissue and the “Radioactivity in Small intestine” value ([2]; 4 h) was 4.76 (0.89) %injected dose/gram tissue. For the same compound, the “Radioactivity in Spleen” value ([2]; 4 h) was 0.69 (0.24) %injected dose/gram tissue, the “Radioactivity in Stomach” value ([2]; 4 h) was 0.81 (0.21) %injected dose /organ and the “Radioactivity in Blood” value ([2]; 24 h) was 0.12 (0.02) %injected dose/gram tissue. The “Radioactivity in Bone” value ([2]; 24 h) was 0.55 (0.10) %injected dose/gram tissue, the “Radioactivity in Brain” value ([2]; 24 h) was 0.07 (0.00) %injected dose/gram tissue and the “Radioactivity in Heart” value ([2]; 24 h) was 0.29 (0.03) %injected dose/gram tissue. For the same compound, the “Radioactivity in Kidney” value ([2]; 24 h) was 0.21 (0.05) %injected dose/gram tissue, the “Radioactivity in Large intestine” value ([2]; 24 h) was 0.18 (0.03) %injected dose/gram tissue and the “Radioactivity in Liver” value ([2]; 24 h) was 0.29 (0.08) %injected dose/gram tissue. For the same compound, the “Radioactivity in Lung” value ([2]; 24 h) was 0.29 (0.05) %injected dose/gram tissue, the “Radioactivity in Muscle” value ([2]; 24 h) was 0.22 (0.02) %injected dose/gram tissue and the “Radioactivity in Pancreas” value ([2]; 24 h) was 0.41 (0.34) %injected dose/gram tissue. For the same compound, the “Radioactivity in Small intestine” value ([2]; 24 h) was 0.07 (0.01) %injected dose/gram tissue, the “Radioactivity in Spleen” value ([2]; 24 h) was 0.66 (0.77) %injected dose/gram tissue and the “Radioactivity in Stomach” value ([2]; 24 h) was 0.11 (0.01) %injected dose /organ.
For `COCCOc1ccc2c(c1)ncn2-c1ccc2cccc(N3CCC(NC(=O)c4cccc([77Br])c4)CC3)c2n1` [[^77Br]3, [^77Br]-N-3-bromobenzoyl-1-{2-[5-(2-methoxyethoxy)-1H-benzo[d]imidazol-1-yl]quinolin-8-yl}-piperidin-4-amine], the “Radioactivity in Blood” value ([2]; 10 min) was 1.68 (0.07) %injected dose/gram tissue, the “Radioactivity in Bone” value ([2]; 10 min) was 1.88 (0.15) %injected dose/gram tissue and the “Radioactivity in Brain” value ([2]; 10 min) was 0.43 (0.02) %injected dose/gram tissue. The “Radioactivity in Heart” value ([2]; 10 min) was 2.70 (0.24) %injected dose/gram tissue, the “Radioactivity in Kidney” value ([2]; 10 min) was 5.21 (0.53) %injected dose/gram tissue and the “Radioactivity in Large intestine” value ([2]; 10 min) was 0.88 (0.08) %injected dose/gram tissue. The “Radioactivity in Liver” value ([2]; 10 min) was 25.80 (2.54) %injected dose/gram tissue, the “Radioactivity in Lung” value ([2]; 10 min) was 3.08 (0.65) %injected dose/gram tissue and the “Radioactivity in Muscle” value ([2]; 10 min) was 1.28 (0.19) %injected dose/gram tissue. For the same compound, the “Radioactivity in Pancreas” value ([2]; 10 min) was 2.61 (0.20) %injected dose/gram tissue, the “Radioactivity in Small intestine” value ([2]; 10 min) was 3.28 (0.32) %injected dose/gram tissue and the “Radioactivity in Spleen” value ([2]; 10 min) was 3.05 (1.14) %injected dose/gram tissue. For the same compound, the “Radioactivity in Stomach” value ([2]; 10 min) was 1.31 (0.22) %injected dose /organ, the “Radioactivity in Blood” value ([2]; 1 h) was 0.65 (0.05) %injected dose/gram tissue and the “Radioactivity in Bone” value ([2]; 1 h) was 1.60 (0.27) %injected dose/gram tissue. The “Radioactivity in Brain” value ([2]; 1 h) was 0.22 (0.05) %injected dose/gram tissue, the “Radioactivity in Heart” value ([2]; 1 h) was 1.14 (0.09) %injected dose/gram tissue and the “Radioactivity in Kidney” value ([2]; 1 h) was 2.03 (0.33) %injected dose/gram tissue. For the same compound, the “Radioactivity in Large intestine” value ([2]; 1 h) was 2.23 (0.75) %injected dose/gram tissue, the “Radioactivity in Liver” value ([2]; 1 h) was 7.59 (0.76) %injected dose/gram tissue and the “Radioactivity in Lung” value ([2]; 1 h) was 1.18 (0.10) %injected dose/gram tissue. For the same compound, the “Radioactivity in Muscle” value ([2]; 1 h) was 0.91 (0.45) %injected dose/gram tissue, the “Radioactivity in Pancreas” value ([2]; 1 h) was 1.24 (0.16) %injected dose/gram tissue and the “Radioactivity in Small intestine” value ([2]; 1 h) was 14.30 (0.23) %injected dose/gram tissue. For the same compound, the “Radioactivity in Spleen” value ([2]; 1 h) was 1.47 (0.20) %injected dose/gram tissue, the “Radioactivity in Stomach” value ([2]; 1 h) was 1.10 (0.24) %injected dose /organ and the “Radioactivity in Blood” value ([2]; 4 h) was 0.25 (0.04) %injected dose/gram tissue. For the same compound, the “Radioactivity in Bone” value ([2]; 4 h) was 1.32 (0.12) %injected dose/gram tissue, the “Radioactivity in Brain” value ([2]; 4 h) was 0.19 (0.01) %injected dose/gram tissue and the “Radioactivity in Heart” value ([2]; 4 h) was 0.65 (0.05) %injected dose/gram tissue. For the same compound, the “Radioactivity in Kidney” value ([2]; 4 h) was 0.65 (0.15) %injected dose/gram tissue, the “Radioactivity in Large intestine” value ([2]; 4 h) was 28.99 (2.21) %injected dose/gram tissue and the “Radioactivity in Liver” value ([2]; 4 h) was 2.19 (1.38) %injected dose/gram tissue. For the same compound, the “Radioactivity in Lung” value ([2]; 4 h) was 0.45 (0.07) %injected dose/gram tissue, the “Radioactivity in Muscle” value ([2]; 4 h) was 0.57 (0.24) %injected dose/gram tissue and the “Radioactivity in Pancreas” value ([2]; 4 h) was 0.68 (0.10) %injected dose/gram tissue. The “Radioactivity in Small intestine” value ([2]; 4 h) was 4.50 (2.02) %injected dose/gram tissue, the “Radioactivity in Spleen” value ([2]; 4 h) was 0.88 (0.08) %injected dose/gram tissue and the “Radioactivity in Stomach” value ([2]; 4 h) was 0.59 (0.26) %injected dose /organ. The “Radioactivity in Blood” value ([2]; 24 h) was 0.39 (0.05) %injected dose/gram tissue, the “Radioactivity in Bone” value ([2]; 24 h) was 1.32 (0.17) %injected dose/gram tissue and the “Radioactivity in Brain” value ([2]; 24 h) was 0.20 (0.02) %injected dose/gram tissue. For the same compound, the “Radioactivity in Heart” value ([2]; 24 h) was 0.72 (0.11) %injected dose/gram tissue, the “Radioactivity in Kidney” value ([2]; 24 h) was 0.37 (0.05) %injected dose/gram tissue and the “Radioactivity in Large intestine” value ([2]; 24 h) was 0.18 (0.00) %injected dose/gram tissue. The “Radioactivity in Liver” value ([2]; 24 h) was 0.18 (0.04) %injected dose/gram tissue, the “Radioactivity in Lung” value ([2]; 24 h) was 0.56 (0.07) %injected dose/gram tissue and the “Radioactivity in Muscle” value ([2]; 24 h) was 0.54 (0.04) %injected dose/gram tissue. The “Radioactivity in Pancreas” value ([2]; 24 h) was 0.68 (0.03) %injected dose/gram tissue, the “Radioactivity in Small intestine” value ([2]; 24 h) was 0.18 (0.05) %injected dose/gram tissue and the “Radioactivity in Spleen” value ([2]; 24 h) was 0.72 (0.24) %injected dose/gram tissue. The “Radioactivity in Stomach” value ([2]; 24 h) was 0.35 (0.06) %injected dose /organ.
